What follows are molecules tested against T1, TNIK (Homo sapiens, UniProt Q9UKE5) (assay: ADP-Glo Kinase Assay, inhibition activity on TNIK). Conditions: not given.
T1 construct: purchased Promega V4158
T1 sequence (Q9UKE5 1-367 limits assumed): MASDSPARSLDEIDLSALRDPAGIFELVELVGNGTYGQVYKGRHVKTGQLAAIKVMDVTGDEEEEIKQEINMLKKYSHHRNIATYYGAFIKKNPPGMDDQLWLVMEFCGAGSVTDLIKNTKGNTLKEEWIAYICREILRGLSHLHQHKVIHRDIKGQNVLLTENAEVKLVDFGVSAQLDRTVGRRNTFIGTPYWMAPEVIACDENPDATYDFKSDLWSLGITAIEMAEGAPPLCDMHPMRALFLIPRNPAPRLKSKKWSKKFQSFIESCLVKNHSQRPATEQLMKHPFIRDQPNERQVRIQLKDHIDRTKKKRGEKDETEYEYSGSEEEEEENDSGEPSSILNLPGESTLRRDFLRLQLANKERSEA
Format: biochemical
Protocol: The inhibition activities on TNIK, IKKε and TBK1 were measured by a luminometer, TNIK/IKKε/TBK1 Kinase Enzyme System (Promega, Ca# V4158; Invitrogen, PR8031B, Promega, Ca# V3991) and ADP-Glo Kinase Assay using ADP-Glo™ Kinase Analysis Kit (Promega, Ca# V9101) and a kinase reaction buffer [40 mM Tris(pH 7.5), 20 mM MgCl2, 0.1 mg/mL BSA] in accordance with the manufacturer's protocol.
`Nc1ccc(-c2ccc(F)cc2)c2c1C(=O)NC2` [Example 61, 7-Amino-4-(4-fluorophenyl)isoindolin-1-one] was tested, and the “TNIK (μM)” value was “Insoluble”. For `CN(C)c1cccc(C(=O)Nc2ccc(-c3ccccc3)c3c2C(=O)NC3)c1` [Example 95, 3-(Dimethylamino)-N-(3-oxo-7-phenylisoindolin-4-yl) benzamide], the “TNIK (μM)” value was “Insoluble”. `COc1ccc(C(=O)Nc2ccc(-c3ccccc3)c3c2C(=O)NC3)cc1OC` [Example 102, 3,4-Dimethoxy-N-(3-oxo-7-phenylisoindolin-4-yl)benzamide] was tested, and the “TNIK (μM)” value was “Insoluble”. In the case of `O=C(Nc1ccc(-c2ccccc2)c2c1C(=O)NC2)c1ccc(Cl)c(Cl)c1` [Example 104, 3,4-Dichloro-N-(3-oxo-7-phenylisoindolin-4-yl)benzamide], the “TNIK (μM)” value is reported as “Insoluble”. For `O=C(Nc1ccc(-c2ccccc2)c2c1C(=O)NC2)c1ccc([N+](=O)[O-])cc1` [Example 119, 4-Nitro-N-(3-oxo-7-phenylisoindolin-4-yl)benzamide], the “TNIK (μM)” value was “Insoluble”.

Same assay, conditions: read-out: TNIK
For `O=C(Nc1ccc(-c2cccc(Cl)c2F)c2c1C(=O)NC2)c1ccccc1` [Example 50, N-(7-(3-chloro-2-fluorophenyl)-3-oxoisoindolin-4-yl)benzamide], the IC50 was > 20 µM. Molecule `O=C(Nc1ccc(-c2cncs2)c2c1C(=O)NC2)c1ccccc1` [Example 51, N-(3-oxo-7-(thiazol-5-yl)isoindolin-4-yl)benzamide] has an IC50 of 0.44 µM. `O=C(Nc1ccc(-c2cscn2)c2c1C(=O)NC2)c1ccccc1` [Example 52, N-(3-oxo-7-(thiazol-4-yl)isoindolin-4-yl)benzamide] showed an IC50 of 2.8 µM. `O=C(Nc1ccc(-c2nccs2)c2c1C(=O)NC2)c1ccccc1` [Example 53, N-(3-oxo-7-(thiazol-2-yl)isoindolin-4-yl)benzamide] gave an IC50 of 2.34 µM. With `O=C(Nc1ccc(-c2c[nH]cn2)c2c1C(=O)NC2)c1ccccc1` [Example 54, N-(7-(1H-imidazol-4-yl)-3-oxoisoindolin-4-yl)benzamide] the IC50 was 3.82 µM. `O=C(Nc1ccc(-c2cn[nH]c2)c2c1C(=O)NC2)c1ccccc1` [Example 55, N-(3-oxo-7-(1H-pyrazol-4-yl)isoindolin-4-yl)benzamide] was tested, and the IC50 was 4.62 µM. With `Cn1cncc1-c1ccc(NC(=O)c2ccccc2)c2c1CNC2=O` [Example 56, N-(7-(1-methyl-1H-imidazol-5-yl)-3-oxoisoindolin-4-yl) benzamide] the IC50 was 2.21 µM. `Cn1cc(-c2ccc(NC(=O)c3ccccc3)c3c2CNC3=O)cn1` [Example 57, N-(7-(1-methyl-1H-pyrazol-4-yl)-3-oxoisoindolin-4-yl) benzamide] was tested, and the IC50 was 2.17 µM. Work on `O=C(Nc1ccc(-c2ncn[nH]2)c2c1C(=O)NC2)c1ccccc1` [Example 58, N-(3-oxo-7-(1H-1,2,4-triazol-5-yl)isoindolin-4-yl)benzamide] yielded an IC50 of 2.67 µM. `Cn1ncnc1-c1ccc(NC(=O)c2ccccc2)c2c1CNC2=O` [Example 59, N-(7-(1-methyl-1H-1,2,4-triazol-5-yl)-3-oxoisoindolin-4-yl) benzamide] was tested, and the IC50 was > 20 µM. In the case of `COc1ccc(-c2ccc(N)c3c2CNC3=O)cc1` [Example 60, 7-Amino-4-(4-methoxyphenyl)isoindolin-1-one], the IC50 is reported as > 20 µM. `Nc1ccc(-c2ccc(Cl)cc2)c2c1C(=O)NC2` [Example 62, 7-Amino-4-(4-chlorophenyl)isoindolin-1-one] was tested, and the IC50 was > 20 µM. For `Cc1ccc(-c2ccc(N)c3c2CNC3=O)cc1` [Example 63, 7-Amino-4-(p-tolyl)isoindolin-1-one], the IC50 was > 20 µM. `CC(=O)c1ccc(-c2ccc(N)c3c2CNC3=O)cc1` [Example 64, 4-(4-Acetylphenyl)-7-aminoisoindolin-1-one] was tested, and the IC50 was > 20 µM. `Nc1ccc(-c2ccncc2)c2c1C(=O)NC2` [Example 65, 7-Amino-4-(pyridin-4-yl)isoindolin-1-one] was tested, and the IC50 was > 20 µM. Molecule `Cc1ccccc1C(=O)Nc1ccc(-c2ccccc2)c2c1C(=O)NC2` [Example 87, 2-Methyl-N-(3-oxo-7-phenylisoindolin-4-yl)benzamide] has an IC50 of 14.6 µM. For `Cc1cccc(C(=O)Nc2ccc(-c3ccccc3)c3c2C(=O)NC3)c1` [Example 88, 3-Methyl-N-(3-oxo-7-phenylisoindolin-4-yl)benzamide], the IC50 was 2.8 µM. For `Cc1ccc(C(=O)Nc2ccc(-c3ccccc3)c3c2C(=O)NC3)cc1` [Example 89, 4-Methyl-N-(3-oxo-7-phenylisoindolin-4-yl)benzamide], the IC50 was 0.77 µM. With `O=C(Nc1ccc(-c2ccccc2)c2c1C(=O)NC2)c1cccc(Cl)c1` [Example 90, 3-Chloro-N-(3-oxo-7-phenylisoindolin-4-yl)benzamide] the IC50 was > 20 µM. With `O=C(Nc1ccc(-c2ccccc2)c2c1C(=O)NC2)c1ccc(F)cc1F` [Example 91, 2,4-Difluoro-N-(3-oxo-7-phenylisoindolin-4-yl)benzamide] the IC50 was > 20 µM. In the case of `O=C(Nc1ccc(-c2ccccc2)c2c1C(=O)NC2)c1ccc(F)c(F)c1` [Example 92, 3,4-Difluoro-N-(3-oxo-7-phenylisoindolin-4-yl)benzamide], the IC50 is reported as > 20 µM. `Cc1ccc(C(=O)Nc2ccc(-c3ccccc3)c3c2C(=O)NC3)cc1C` [Example 93, 3,4-Dimethyl-N-(3-oxo-7-phenylisoindolin-4-yl)benzamide] was tested, and the IC50 was 1.1 µM. With `CN(C)c1ccccc1C(=O)Nc1ccc(-c2ccccc2)c2c1C(=O)NC2` [Example 94, 2-(Dimethylamino)-N-(3-oxo-7-phenylisoindolin-4-yl) benzamide] the IC50 was > 20 µM. Molecule `CSc1ccccc1C(=O)Nc1ccc(-c2ccccc2)c2c1C(=O)NC2` [Example 96, 2-(Methylthio)-N-(3-oxo-7-phenylisoindolin-4-yl)benzamide] has an IC50 of 7 µM. `CSc1cccc(C(=O)Nc2ccc(-c3ccccc3)c3c2C(=O)NC3)c1` [Example 97, 3-(Methylthio)-N-(3-oxo-7-phenylisoindolin-4-yl)benzamide] was tested, and the IC50 was > 20 µM. With `CS(=O)(=O)c1ccccc1C(=O)Nc1ccc(-c2ccccc2)c2c1C(=O)NC2` [Example 98, 2-(Methylsulfonyl)-N-(3-oxo-7-phenylisoindolin-4-yl) benzamide] the IC50 was 10.5 µM. `CS(=O)(=O)c1cccc(C(=O)Nc2ccc(-c3ccccc3)c3c2C(=O)NC3)c1` [Example 99, 3-(Methylsulfonyl)-N-(3-oxo-7-phenylisoindolin-4-yl) benzamide] showed an IC50 of 4.3 µM. In the case of `CS(=O)(=O)c1ccc(C(=O)Nc2ccc(-c3ccccc3)c3c2C(=O)NC3)cc1` [Example 100, 4-(Methylsulfonyl)-N-(3-oxo-7-phenylisoindolin-4-yl) benzamide], the IC50 is reported as > 20 µM. For `COc1ccc(C(=O)Nc2ccc(-c3ccccc3)c3c2C(=O)NC3)c(OC)c1` [Example 101, 2,4-Dimethoxy-N-(3-oxo-7-phenylisoindolin-4-yl)benzamide], the IC50 was > 20 µM. In the case of `O=C(Nc1ccc(-c2ccccc2)c2c1C(=O)NC2)c1ccc(Cl)cc1Cl` [Example 103, 2,4-Dichloro-N-(3-oxo-7-phenylisoindolin-4-yl)benzamide], the IC50 is reported as > 20 µM. With `Cc1ccc(C(=O)Nc2ccc(-c3ccccc3)c3c2C(=O)NC3)c(C)c1` [Example 105, 2,4-Dimethyl-N-(3-oxo-7-phenylisoindolin-4-yl)benzamide] the IC50 was > 20 µM. With `CC(=O)Nc1ccccc1C(=O)Nc1ccc(-c2ccccc2)c2c1C(=O)NC2` [Example 106, 2-Acetamido-N-(3-oxo-7-phenylisoindolin-4-yl)benzamide] the IC50 was > 20 µM. Work on `CC(=O)Nc1cccc(C(=O)Nc2ccc(-c3ccccc3)c3c2C(=O)NC3)c1` [Example 107, 3-Acetamido-N-(3-oxo-7-phenylisoindolin-4-yl)benzamide] yielded an IC50 of 0.48 µM. Molecule `CNc1ccc(C(=O)Nc2ccc(-c3ccccc3)c3c2C(=O)NC3)cc1` [Example 108, 4-(Methylamino)-N-(3-oxo-7-phenylisoindolin-4-yl)benzamide] has an IC50 of 0.78 µM. With `Cc1ccsc1C(=O)Nc1ccc(-c2ccccc2)c2c1C(=O)NC2` [Example 109, 3-Methyl-N-(3-oxo-7-phenylisoindolin-4-yl)thiophene-2-carboxamide] the IC50 was > 20 µM. `Cc1csc(C(=O)Nc2ccc(-c3ccccc3)c3c2C(=O)NC3)c1` [Example 110, 4-Methyl-N-(3-oxo-7-phenylisoindolin-4-yl)thiophene-2-carboxamide] was tested, and the IC50 was > 20 µM. For `Cc1ccc(C(=O)Nc2ccc(-c3ccccc3)c3c2C(=O)NC3)s1` [Example 111, 5-Methyl-N-(3-oxo-7-phenylisoindolin-4-yl)thiophene-2-carboxamide], the IC50 was 0.54 µM. Work on `Cc1ccccc1-c1ccc(NC(=O)c2ccccc2)c2c1CNC2=O` [Example 112, N-(3-oxo-7-(o-tolyl)isoindolin-4-yl)benzamide] yielded an IC50 of 2.2 µM. `Cc1cccc(-c2ccc(NC(=O)c3ccccc3)c3c2CNC3=O)c1` [Example 113, N-(3-oxo-7-(m-tolyl)isoindolin-4-yl)benzamide] was tested, and the IC50 was 1.7 µM. In the case of `O=C(Nc1ccc(-c2ccccc2C(F)(F)F)c2c1C(=O)NC2)c1ccccc1` [Example 114, N-(3-oxo-7-(2-(trifluoromethyl)phenyl)isoindolin-4-yl) benzamide], the IC50 is reported as > 20 µM. For `O=C(Nc1ccc(-c2cccc(C(F)(F)F)c2)c2c1C(=O)NC2)c1ccccc1` [Example 115, N-(3-oxo-7-(3-(trifluoromethyl)phenyl)isoindolin-4-yl) benzamide], the IC50 was > 20 µM. `CC(=O)Nc1ccc(C(=O)Nc2ccc(-c3ccccc3)c3c2C(=O)NC3)cc1` [Example 116, 4-Acetamido-N-(3-oxo-7-phenylisoindolin-4-yl)benzamide] showed an IC50 of 0.13 µM. `O=C(Nc1ccc(-c2ccccc2)c2c1C(=O)NC2)c1ccccc1` [Example 117, N-(3-oxo-7-phenylisoindolin-4-yl)benzamide] was tested, and the IC50 was 2.32 µM. `COc1ccc(-c2ccc(NC(=O)c3ccccc3)c3c2CNC3=O)cc1` [Example 118, N-(7-(4-methoxyphenyl)-3-oxoisoindolin-4-yl)benzamide] was tested, and the IC50 was > 20 µM. `COc1ccc(-c2ccc(NC(=O)c3ccc(NC(C)=O)cc3)c3c2CNC3=O)cc1` [Example 120, 4-Acetamido-N-(7-(4-methoxyphenyl)-3-oxoisoindolin-4-yl) benzamide] was tested, and the IC50 was > 20 µM.

— patent US9856216B2, “Compounds as TNIK, IKKε and TBK1 inhibitors and pharmaceutical composition comprising same” (GREEN CROSS CORPORATION, priority 2015, dated 2018)
